# Data from ChEMBL document CHEMBL5500399, “Design, Synthesis, and Biological Evaluation of 1,2,4-Oxadiazole Derivatives Containing an Aryl Carboxylic Acid Moiety as Potent Sarbecovirus Papain-like Protease Inhibitors” (J Med Chem, 2024).
# Calls of active or inactive are those of the source. The calls are words filed in the database; no cut-off is given here.
# Tests used:
# [1] = target: T1, Replicase polyprotein 1ab (Severe acute respiratory syndrome coronavirus 2, UniProt P0DTD1); experiment: Inhibition of SARS-CoV2 PLpro using Z-RLRGG-AMC as substrate preincubated for 10 mins followed by substrate addition and measured after 20 sec shaking for 30 mins by time-resolved fluorescence assay
# [2] = target: Replicase polyprotein 1ab (Severe acute respiratory syndrome coronavirus 2) (UniProt P0DTD1); experiment: Binding affinity to SARS-CoV2 PLpro assessed as stabilization by measuring increase melting temperature by thermal shift assay
# [3] = target: Replicase polyprotein 1ab (Severe acute respiratory syndrome coronavirus 2) (UniProt P0DTD1); experiment: Potency index, ratio of GRL0617 IC50 to test compound IC50 for inhibition of SARS-CoV2 PLpro
# [4] = target: T1, Replicase polyprotein 1ab; experiment: Binding affinity to SARS-CoV2 PLpro by biolayer interferometry analysis
# [5] = target: Replicase polyprotein 1ab (Severe acute respiratory syndrome coronavirus 2) (UniProt P0DTD1); experiment: Inhibition of RLRGG binding to SARS-CoV2 PLpro
# [6] = target: Replicase polyprotein 1ab (Middle East respiratory syndrome-related coronavirus (isolate UnitedKingdom/H123990006/2012) (Betacoronavirus England 1) (Humancoronavirus EMC)) (UniProt K9N7C7); experiment: Inhibition of MERS-CoV PLpro using Z-RLRGG-AMC as substrate preincubated for 10 mins followed by substrate addition and measured after 20 sec shaking for 30 mins by time-resolved fluorescence assay; details: time 40.3 min
# [7] = Metabolic stability in CD-1 mouse liver microsomes assessed as compound remaining at 1 uM preincubated for 5 mins followed by NADPH addition and measured after 30 mins by LC-MS/MS analysis; type: ADME, Microsome; details: read-out: Stability
# [8] = Metabolic stability in human liver microsomes assessed as compound remaining at 1 uM preincubated for 5 mins followed by NADPH addition and measured after 30 mins by LC-MS/MS analysis; type: ADME, Microsome; details: read-out: Stability
# [9] = target: Replicase polyprotein 1ab (Severe acute respiratory syndrome coronavirus 2) (UniProt P0DTD1); experiment: Inhibition of SARS-CoV2 PLpro cleavage activity using 2Ub-K48 as substrate incubated overnight by SYPRO Ruby staining based SDS-PAGE analysis
# [10] = Metabolic stability in human liver microsomes assessed as half life at 1 uM preincubated for 5 mins followed by NADPH addition and measured after 30 mins by LC-MS/MS analysis; type: ADME, Microsome; details: time 35 min
# [11] = Metabolic stability in CD-1 mouse liver microsomes assessed as half life at 1 uM preincubated for 5 mins followed by NADPH addition and measured after 30 mins by LC-MS/MS analysis; type: ADME, Microsome; details: time 35 min
# [12] = system: Severe acute respiratory syndrome-related coronavirus; experiment: Inhibition of SARS-CoV PLpro using Z-RLRGG-AMC as substrate preincubated for 10 mins followed by substrate addition and measured after 20 sec shaking for 30 mins by time-resolved fluorescence assay
# [13] = Metabolic stability in mouse hepatocytes assessed as half life at 1 uM measured upto 30 mins; type: ADME, cell-based, Hepatocyte
# [14] = Metabolic stability in human hepatocytes assessed as compound remaining at 1 uM measured after 30 mins; type: ADME, cell-based, Hepatocyte; details: read-out: Stability
# [15] = Metabolic stability in mouse hepatocytes assessed as intrinsic clearance per million cells at 1 uM measured upto 30 mins; type: ADME, cell-based, Hepatocyte; details: read-out: CLH
# [16] = Metabolic stability in human hepatocytes assessed as intrinsic clearance per million cells at 1 uM measured upto 30 mins; type: ADME, cell-based, Hepatocyte; details: read-out: CLH
# [17] = Metabolic stability in human hepatocytes assessed as half life at 1 uM measured upto 30 mins; type: ADME, cell-based, Hepatocyte
# [18] = Metabolic stability in mouse hepatocytes assessed as compound remaining at 1 uM measured after 30 mins; type: ADME, cell-based, Hepatocyte; details: read-out: Stability
structure (smiles),measurement,setting,value
Cc1ccc(-c2noc([C@@H](C)c3ccc(-c4ccccc4)c(F)c3)n2)cc1NCc1ccc(C(=O)O)s1,IC50,[1],3.4 µM
Cc1ccc(-c2noc(-c3ccccc3)n2)cc1NCc1ccc(C(=O)O)s1,IC50,[1],59 µM
Cc1ccc(NCc2ccc(S(C)(=O)=O)cc2)cc1-c1noc(C(C)c2cccc3ccccc23)n1 (stereo not drawn),IC50,[1],59.2 µM
CC(c1nc(-c2ccc(Nc3ccc(C(=O)O)cc3)cc2)no1)c1cccc2ccccc12 (stereo not drawn),IC50,[1],4.2 µM
Cc1ccc(NC2CCC(C(=O)O)CC2)cc1-c1noc(C(C)c2cccc3ccccc23)n1 (stereo not drawn),IC50,[1],22.7 µM
COC(=O)c1ccc(Nc2ccc(C)c(-c3noc(C(C)c4cccc5ccccc45)n3)c2)cc1 (stereo not drawn),IC50,[1],70.9 µM
Cc1ccc(-c2noc(-c3cccc4ccccc34)n2)cc1NCc1ccc(C(=O)O)s1,IC50,[1],11.6 µM
Cc1ccc(NCC(C)(C)C)cc1-c1noc(C(C)c2cccc3ccccc23)n1 (stereo not drawn),IC50,[1],> 200 µM
Cc1ccc(-c2noc(C(C)c3cccc(-c4cccs4)c3)n2)cc1NCc1ccc(C(=O)O)s1 (stereo not drawn),IC50,[1],4.1 µM
same,Activity,[2],Active
Cc1ccc(N)cc1-c1noc(C(C)c2cccc3ccccc23)n1 (stereo not drawn),IC50,[1],> 200 µM
Cc1ccc(Nc2ccc(C(=O)O)cc2)cc1-c1noc(C(C)c2cccc3ccccc23)n1 (stereo not drawn),IC50,[1],10.7 µM
Cc1ccc(-c2noc(C(C)c3ccc(N4Cc5ccccc5C4=O)cc3)n2)cc1NCc1ccc(C(=O)O)s1 (stereo not drawn),IC50,[1],3.9 µM
Cc1ccc(NCc2ccc(C(=O)O)o2)cc1-c1noc(C(C)c2cccc3ccccc23)n1 (stereo not drawn),IC50,[1],14.4 µM
CC(c1nc(-c2cccc(NCc3ccc(C(=O)O)o3)c2)no1)c1cccc2ccccc12 (stereo not drawn),IC50,[1],96.5 µM
CC(c1ncc(-c2ccc(-c3ccc(C#N)s3)cc2)o1)c1cccc2ccccc12 (stereo not drawn),IC50,[1],20.8 µM
Cc1ccc(NCc2ccc(O)cc2)cc1-c1noc(C(C)c2cccc3ccccc23)n1 (stereo not drawn),IC50,[1],176 µM
Cc1ccc(-c2noc(C(c3ccccc3)c3ccccc3)n2)cc1NCc1ccc(C(=O)O)s1,IC50,[1],9 µM
same,Activity,[2],Active
Cc1ccc(-c2noc(C(C)c3cccc(C(O)c4ccccc4)c3)n2)cc1NCc1ccc(C(=O)O)s1 (stereo not drawn),IC50,[1],11.1 µM
CC(c1noc(-c2ccc(-c3ccc(C#N)s3)cc2)n1)c1cccc2ccccc12 (stereo not drawn),IC50,[1],31.4 µM
Cc1ccc(-c2noc(C(C)c3cccc4ccccc34)n2)cc1NCc1ccc(C(=O)O)s1 (stereo not drawn),IC50,[1],0.1 µM
same,Ratio IC50,[3],10
CC(c1nc(-c2ccc(-c3ccc(C(=O)O)cc3)cc2)no1)c1cccc2ccccc12 (stereo not drawn),IC50,[1],11.7 µM
COc1ccc2cc([C@H](C)c3nc(-c4ccc(C)c(NCc5ccc(C(=O)O)s5)c4)no3)ccc2c1,IC50,[1],5.8 µM
Cc1ccc(-c2noc(C(O)c3ccccc3)n2)cc1NCc1ccc(C(=O)O)s1 (stereo not drawn),IC50,[1],435 µM
Cc1ccc(-c2noc([C@H](C)c3ccc(-c4ccccc4)c(F)c3)n2)cc1NCc1ccc(C(=O)O)s1,IC50,[1],4 µM
CC(c1nc(-c2cccc(NCc3ccc(C(=O)O)s3)c2)no1)c1cccc2ccccc12 (stereo not drawn),IC50,[1],7.6 µM
CC(c1noc(-c2ccc(-c3ccc(C(=O)O)s3)cc2)n1)c1cccc2ccccc12 (stereo not drawn),IC50,[1],2.1 µM
CC(c1nc(-c2cc(NCc3ccc(C(=O)O)cc3)ccc2Br)no1)c1cccc2ccccc12 (stereo not drawn),IC50,[1],2.1 µM
Cc1ccc(NC2CCCC(C(=O)O)C2)cc1-c1noc(C(C)c2cccc3ccccc23)n1 (stereo not drawn),IC50,[1],35.1 µM
Cc1ccc(NCc2ccc(C(=O)O)cc2)cc1-c1noc(C(C)c2cccc3ccccc23)n1 (stereo not drawn),IC50,[1],11.2 µM
Cc1ccc(NCc2ccc(C#N)cc2)cc1-c1noc(C(C)c2cccc3ccccc23)n1 (stereo not drawn),IC50,[1],> 200 µM
COc1ccc(-c2noc(C(C)c3cccc4ccccc34)n2)cc1NCc1ccc(C(=O)O)s1 (stereo not drawn),IC50,[1],1.3 µM
CC(c1ncc(-c2ccc(-c3ccc(C(=O)O)s3)cc2)o1)c1cccc2ccccc12 (stereo not drawn),IC50,[1],7.7 µM
CC(c1nc(-c2ccc(-c3ccc(C#N)s3)cc2)no1)c1cccc2ccccc12 (stereo not drawn),IC50,[1],0.6 µM
CC(c1nc(-c2cccc(NCc3ccc(C(=O)O)cc3)c2)no1)c1cccc2ccccc12 (stereo not drawn),IC50,[1],7.5 µM
CC(c1nc(-c2ccc(N(C)Cc3ccc(C(=O)O)s3)cc2)no1)c1cccc2ccccc12 (stereo not drawn),IC50,[1],4 µM
Cc1ccc(-c2noc(C(C)c3cccc(-c4ccccc4)c3)n2)cc1NCc1ccc(C(=O)O)s1 (stereo not drawn),IC50,[1],4.3 µM
Cc1ccc(NC2CCCCC2)cc1-c1noc(C(C)c2cccc3ccccc23)n1 (stereo not drawn),IC50,[1],101 µM
CC(c1nc(-c2ccc(NCc3ccc(C(=O)O)cc3)cc2)no1)c1cccc2ccccc12 (stereo not drawn),IC50,[1],50.2 µM
Cc1ccc(-c2noc(C(C)c3ccc(CC(C)C)cc3)n2)cc1NCc1ccc(C(=O)O)s1 (stereo not drawn),IC50,[1],3.6 µM
Cc1ccc(-c2noc(C(C)(C)c3ccc(-c4ccccc4)cc3)n2)cc1NCc1ccc(C(=O)O)s1,IC50,[1],35.4 µM
COc1ccc2cc(C(C)c3nc(-c4ccc(C)c(NCc5ccc(C(=O)O)s5)c4)no3)ccc2c1 (racemic),IC50,[1],5.9 µM
Cc1ccc(-c2noc(C(C)c3ccc4c(c3)[nH]c3ccc(Cl)cc34)n2)cc1NCc1ccc(C(=O)O)s1 (stereo not drawn),IC50,[1],1.9 µM
same,Kd,[4],13.6 µM
Cc1ccc(-c2noc(C(C)c3cccc4ccccc34)n2)cc1NCc1ccc(C(=O)O)cc1 (stereo not drawn),IC50,[1],0.2 µM
Cc1ccc(-c2noc(-c3ccc(-c4ccccc4)cc3)n2)cc1NCc1ccc(C(=O)O)s1,IC50,[1],25.5 µM
Cc1ccc(NCc2cccc(C(=O)O)c2)cc1-c1noc(C(C)c2cccc3ccccc23)n1 (stereo not drawn),IC50,[1],11.1 µM
Cc1ccc(NC2CCC(C#N)CC2)cc1-c1noc(C(C)c2cccc3ccccc23)n1 (stereo not drawn),IC50,[1],> 200 µM
COC1CCC(Nc2ccc(C)c(-c3noc(C(C)c4cccc5ccccc45)n3)c2)CC1 (stereo not drawn),IC50,[1],114 µM
CC(c1nc(-c2ccc(NCc3ccc(C(=O)O)s3)cc2)no1)c1cccc2ccccc12 (stereo not drawn),IC50,[1],0.2 µM
same,inhibition,[5],Active
same,Activity,[2],Active
same,inhibition,[6],Active
same,Kd,[4],13.6 µM
same,"remaining at 0.5 h, 1 µM",[7],93.8%
same,"remaining at 0.5 h, 1 µM",[8],102%
same,inhibition,[9],Active
same,half-life at 1 µM,[10],> 93.2 min
same,half-life at 1 µM,[11],> 93.2 min
same,inhibition,[12],Active
Cc1ccc(-c2noc(C(C)c3cccc(Oc4ccccc4)c3)n2)cc1NCc1ccc(C(=O)O)s1 (stereo not drawn),IC50,[1],4.4 µM
same,inhibition,[5],Active
same,inhibition,[6],Active
same,"remaining at 0.5 h, 1 µM",[7],80%
same,"remaining at 0.5 h, 1 µM",[8],87%
same,inhibition,[9],Active
same,half-life at 1 µM,[10],> 93.2 min
same,half-life at 1 µM,[11],> 93.2 min
same,inhibition,[12],Active
CONC(=O)c1ccc(-c2ccc(-c3noc(C(C)c4cccc5ccccc45)n3)cc2)cc1 (stereo not drawn),IC50,[1],0.9 µM
CC(c1nc(-c2cc(NCc3ccc(C(=O)O)cc3)cc(C(F)(F)F)c2)no1)c1cccc2ccccc12 (stereo not drawn),half-life at 1 µM,[13],16.7 min
same,"remaining at 0.5 h, 1 µM",[14],56.6%
same,IC50,[1],0.2 µM
same,hepatocyte CLint at 1 µM,[15],41.5 µL/min/1e6 cells
same,hepatocyte CLint at 1 µM,[16],19 µL/min/1e6 cells
same,half-life at 1 µM,[17],36.5 min
same,"remaining at 0.5 h, 1 µM",[18],28.8%
same,Kd,[4],13.6 µM
Cc1ccc(-c2noc(Cc3cccc(-c4cccs4)c3)n2)cc1NCc1ccc(C(=O)O)s1,IC50,[1],6.8 µM
COc1ccc2cc([C@@H](C)c3nc(-c4ccc(C)c(NCc5ccc(C(=O)O)s5)c4)no3)ccc2c1,IC50,[1],10.5 µM
CC(c1nc(-c2cc(NCc3ccc(C(=O)O)s3)cc(C(F)(F)F)c2)no1)c1cccc2ccccc12 (stereo not drawn),half-life at 1 µM,[13],53.9 min
same,"remaining at 0.5 h, 1 µM",[14],79.8%
same,IC50,[1],0.1 µM
same,hepatocyte CLint at 1 µM,[15],12.9 µL/min/1e6 cells
same,hepatocyte CLint at 1 µM,[16],7.5 µL/min/1e6 cells
same,half-life at 1 µM,[17],92.4 min
same,"remaining at 0.5 h, 1 µM",[18],68%
same,Kd,[4],13.6 µM
same,Ratio IC50,[3],10
COC(=O)c1ccc(CNc2ccc(C)c(-c3noc(C(C)c4cccc5ccccc45)n3)c2)cc1 (stereo not drawn),IC50,[1],> 200 µM
Cc1ccc(NCc2ccc(C(=O)O)s2)cc1-c1noc(C(C)c2cccc3ccccc23)n1 (stereo not drawn),IC50,[1],10.4 µM
